For 33 compounds, IC50 and inhibition results are on record in PubChem BioAssay AID850 (SRMLSC, 2007).

Active and inactive are the calls of the source. No rule for the calls is given here.

Usually IC50 stands for the concentration at which inhibition is half-maximal. Broadly, the inhibition is the relative decrease from the control value, in per cent.

The subject of assay [1] is Saccharomyces cerevisiae growth inhibition, permissive control. The experiment in a line: yeast lifespan-shortening chemical project counter-assay, dose-response inhibition of growth under permissive conditions (AID 850).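 Also: growth read as optical density after one day of incubation.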
Assay in assay [2]: as above
Conditions: Saccharomyces cerevisiae growth inhibition, permissive control, measured here: maximum growth inhibition, stronger effect = higher value.

For the compound `O=c1[nH]c(Nc2ccccc2)cc2ccccc12`, in assay [1], the IC50 is > 100 µM (inactive). The inhibition in assay [2] (at 50 µM) is 25.9%.

As for `COc1ccc(-c2[nH]ncc2-c2ccc(Cl)cc2)c(O)c1`, the IC50 in assay [1] was > 100 µM (inactive). The inhibition in assay [2] (at 0.781 µM) was determined as 14.4%.

In the case of `C=C(C)COc1ccc(-c2[nH]ncc2-c2ccccc2OC)c(O)c1`, in assay [1], the IC50 is > 100 µM (inactive). In addition, the inhibition in assay [2] (at 0.781 µM) was determined as 23%.

`CCCCn1c(/N=C/c2c[nH]c3ccccc23)nc2ccccc21`: the IC50 in assay [1] is > 100 µM (inactive). Besides, in assay [2] (at 0.781 µM), the inhibition is 7.75%.

On to `CC(C)CN=Cc1c(O)c([N+](=O)[O-])cc2oc3c(c12)CCCC3`, for which, in assay [1], the IC50 was 41 µM. The inhibition in assay [2] (at 50 µM) worked out at 60.1%.

`CCc1ccc(S(=O)(=O)NCCc2cn3ccsc3n2)s1`: the IC50 in assay [1] is > 100 µM (inactive). Moreover, the inhibition in assay [2] (at 25 µM) was found to be 10.4%.

As for `O=S(=O)(Nc1ccc(-n2cccc2)cc1)c1ccc(Cl)cc1Cl`, the IC50 in assay [1] is > 100 µM (inactive). Also, the inhibition in assay [2] (at 0.391 µM) was 29.9%.

For `O=C(O)c1ccc(SCc2cnc(Cl)s2)cc1`, the IC50 in assay [1] was 4.91 µM. In addition, in assay [2] (at 50 µM), the inhibition is 99.2%.

On to `CC1=C(C)/C(=N\OS(=O)(=O)c2ccc(C)cc2)C=CC1=O`, for which the IC50 in assay [1] is 8.79 µM. Moreover, in assay [2] (at 25 µM), the inhibition was 99.2%.

`CCC(C)N1CC23C=CC(O2)C(C(=O)OC)C3C1=O` (stereo unspecified): the IC50 in assay [1] is > 100 µM (inactive). Also, the inhibition in assay [2] (at 0.098 µM) turned out to be 10.6%.

As to `Cc1nc2c(F)c(F)c(C(F)(F)F)c(F)c2[nH]1`, in assay [1], the IC50 is > 100 µM (inactive). Besides, in assay [2] (at 0.391 µM), the inhibition stood at 17.4%.

Consider `CCOC(=O)CSc1nnc(CSc2nc(N)c3c(C)c(C)sc3n2)n1-c1ccccc1`, for which, in assay [1], the IC50 was > 100 µM (inactive). In assay [2] (at 0.391 µM), the inhibition was found to be 7.59%.

As for `CC1=CC(=O)C=C(C)C1=NOS(=O)(=O)c1ccccc1`, the IC50 in assay [1] is 26.4 µM. Moreover, in assay [2] (at 12.5 µM), the inhibition was 62.4%.

In the case of `O=C(/C(=N/N=C/c1ccc(O)c(O)c1O)c1ccccc1)c1ccccc1`, in assay [1], the IC50 is > 100 µM (inactive). Also, in assay [2] (at 0.781 µM), the inhibition amounted to 5.74%.

`Clc1ccc(N/N=C/c2ccncc2)cc1Cl`: the IC50 in assay [1] is > 100 µM (inactive). In addition, the inhibition in assay [2] (at 50 µM) was 21.4%.

As for `Nc1c(Nc2ccccc2)c2ccccc2oc1=O`, in assay [1], the IC50 was 47.1 µM. Also, the inhibition in assay [2] (at 50 µM) was found to be 47.2%.

For the compound `COc1cccc(CC(=O)Nc2ccc3nc(C)sc3c2)c1`, the IC50 in assay [1] is 16 µM. Further, the inhibition in assay [2] (at 50 µM) turned out to be 96.5%.

With `O=C(/C=C/c1ccccc1)c1cc(Br)ccc(=O)c1O`, in assay [1], the IC50 is 12.2 µM. Besides, the inhibition in assay [2] (at 50 µM) is 98.8%.

On to `O=C(COc1ccc(Cl)cc1)NC1=NN(c2ccccc2)C(=O)C1`, for which, in assay [1], the IC50 was > 100 µM (inactive). Moreover, the inhibition in assay [2] (at 6.25 µM) was determined as 14.6%.

Take `Cc1ccc(C)c(-n2nnnc2SCC(=O)Nc2cccc(-c3nnc4n3CCCCC4)c2)c1`: the IC50 in assay [1] was > 100 µM (inactive). Also, in assay [2] (at 50 µM), the inhibition is 17.5%.

Consider `O=C(O)c1cc2c(s1)-c1ccccc1OC2`, for which the IC50 in assay [1] was > 100 µM (inactive). In assay [2] (at 0.195 µM), the inhibition is 15.9%.

Consider `Cc1nc(Nc2ccc(Cl)c(Cl)c2)sc1C(=O)Nc1ccccc1`, for which the IC50 in assay [1] was > 100 µM (inactive). Moreover, the inhibition in assay [2] (at 50 µM) amounted to 15.6%.

Turning to `OC(CNCCc1ccc(C(F)(F)F)cc1)COc1ccc2ccccc2c1` (stereo unspecified), the IC50 in assay [1] is > 100 µM (inactive). In addition, the inhibition in assay [2] (at 50 µM) amounted to 20.9%.

For `CCCCSc1nc(C)c(C(C)=O)cc1C#N`, the IC50 in assay [1] was > 100 µM (inactive). The inhibition in assay [2] (at 12.5 µM) amounted to 3.31%.

`O=C1C=C(c2ccccc2)C(=O)N1Nc1ccccc1`: the IC50 in assay [1] is 23.6 µM. The inhibition in assay [2] (at 50 µM) came out at 85.8%.

On to `COc1ccc(OCc2nnc3n2N=C(c2ccc(OC)cc2)CS3)cc1`, for which the IC50 in assay [1] was > 100 µM (inactive). Further, the inhibition in assay [2] (at 0.781 µM) worked out at 20.9%.

Consider `CCOC(=O)/C(=N\Nc1ccccc1Cl)N1CCN(Cc2ccccc2)CC1`, for which the IC50 in assay [1] is 26.8 µM. The inhibition in assay [2] (at 50 µM) is 73.9%.

On to `O=C1c2ccccc2-c2nc3ccccc3nc21`, for which the IC50 in assay [1] is > 100 µM (inactive). The inhibition in assay [2] (at 50 µM) worked out at 27.3%.

Regarding `CC(N=Cc1cccc(O)c1O)c1ccccc1` (stereo unspecified), the IC50 in assay [1] is 9.56 µM. Moreover, the inhibition in assay [2] (at 50 µM) is 98%.

Consider `Cc1c(C(=O)O)cccc1-c1ccc(/C=N/Nc2ccc(Br)cc2)o1`, for which, in assay [1], the IC50 is 13.1 µM. Further, the inhibition in assay [2] (at 50 µM) is 95.6%.

`CCCCOC(=O)Sc1nc2ccccc2o1`: the IC50 in assay [1] was 14.5 µM. The inhibition in assay [2] (at 50 µM) turned out to be 101%.

For the compound `COc1cccc(C(=O)O/N=C(\N)Cc2ccc(Cl)cc2)c1`, the IC50 in assay [1] was 6.32 µM. Also, the inhibition in assay [2] (at 12.5 µM) was 97.5%.

As for `S=C1SCN(Cc2ccccn2)CN1Cc1ccco1`, in assay [1], the IC50 was 43.4 µM. The inhibition in assay [2] (at 50 µM) was found to be 55.7%.
